Laboratory results reported in patent publication US8175815B2, “Method for assessing absorption properties of low solubility compounds” (F. Hoffmann-La Roche AG, priority 2006, dated 2012).

Tests used:
[1] = Excipient Effect: receiver UV AUC ratio in Double-Sink PAMPA with saturated donor (second embodiment); format: in vitro ADME; conditions: pH 5.0; receiver AUC with excipient / without excipient
Procedure: The compounds are presented as DMSO solutions with a concentration of about 10 mM. They are further diluted in a universal aqueous buffer and adjusted to pH 5.0, 6.2, and 7.4 with 0.5 M NaOH. The background amount of DMSO in the aqueous solution is 0.5% v/v. Most of the compounds are insoluble in water, where they form saturated solutions with precipitation present. The calculated concentration of the compounds in the buffer is about 50 μM, but because of precipitation, the actual concentrations in the aqueous media must be lower than that, and are unknown. Saturated (non-filtered) solutions are transferred to the donor compartment of the PAMPA sandwich pre-loaded with magnetic stirrers. The filter of the PAMPA filter plate (the acceptor compartment of the PAMPA sandwich) is covered with GIT-lipid and filled with acceptor sink buffer (ASB). […]
Thus, it's not surprising that the absorption behavior for this compound at pH 5.0 is governed by the permeability and that the presence of the excipient in the donor compartment decreases the permeability of Butacaine. The second embodiment of the method of the invention allows detection of this behavior without separate measurements of the solubility and permeability constants, but by simple comparison of the compound concentrations (UV absorbance) in the receiver compartments.

[2] = PAMPA, 30 min, 50 μM
[3] = PAMPA, pH 5
[4] = Double-Sink PAMPA permeability with and without excipients
[5] = equilibrium solubility-pH, direct-UV microtitre plate (μSOL Evolution) with and without excipients; conditions: for solubility at 18 h / pKa at 18 h: aqueous universal buffer (pION); for solubility at 18 h: 25 °C, kinetic from dmso stock; for pKa at 18 h: saturated drug suspension, pKa^APP ± SD

excipient Effect [1]: < 1
PABL 0 mM NaTC [2]: 713
PABL 3 mM NaTC [2]: 954
PABL 15 mM NaTC [2]: 13
refined ABL thickness [2]: exceeding 75 μm
net flux effect due to 1% HP-β-CD [3]: loses at all pH values
MW*/MW ([4]; 3 mM NaTC (second value)): 2
MW*/MW ([4]; 15 mM NaTC (third value)): 30000
MW*/MW ([4]; apparent/true molecular weight, 40 μm ABL assumed, 0 mM NaTC (first value)): 4
solubility at 18 h ([5]; aqueous with cosolvent or surfactant or cyclodextrin): 152 µg/mL
solubility at 18 h ([5]; pH 5, aqueous buffer): > 50 µM
pKa at 18 h ([5]; apparent ionization constant in saturated solution, excipient none): 8.8 ± 0.2
pKa at 18 h ([5]; apparent ionization constant, excipient 3 mM NaTC): 8.9 ± 0.2
pKa at 18 h ([5]; apparent ionization constant, excipient 15 mM NaTC): 8.5 ± 0.1
pKa at 18 h ([5]; apparent ionization constant, excipient 0.1M KCl): 8.3 ± 0.3
pKa at 18 h ([5]; apparent ionization constant, excipient 0.2M KCl): 8.6 ± 0.1
pKa at 18 h ([5]; apparent ionization constant, excipient 1% HP-b-CD): 8.1 ± 0.1
pKa at 18 h ([5]; apparent ionization constant, excipient 1% NMP): 8.5 ± 0.1
pKa at 18 h ([5]; apparent ionization constant, excipient 1% PEG400): 8.5 ± 0.1
pKa at 18 h ([5]; apparent ionization constant, excipient 1% PG): 8.2 ± 0.1
pKa at 18 h ([5]; apparent ionization constant, excipient 5% PEG400): 8.5
pKa at 18 h ([5]; apparent ionization constant, excipient 5% PG): 8.5 ± 0.2
pKa at 18 h ([5]; apparent ionization constant, excipient […] HP-b-CD): 8.5 ± 0.1
pKa at 18 h ([5]; apparent ionization constant, excipient […] NMP): 8.8 ± 0.1
pKa at 18 h ([5]; apparent ionization constant, excipient […] PEG400): 8.5
pKa at 18 h ([5]; apparent ionization constant, excipient […] PG): 8.8 ± 0.1
So ± SD ([5]; excipient 3 mM NaTC): 3.1 ± 1.6 µg/mL
So^APP ± SD ([5]; excipient 3 mM NaTC): 50 ± 10 µg/mL
So ± SD ([5]; excipient 15 mM NaTC): 2.3 ± 0.4 µg/mL
So^APP ± SD ([5]; excipient 15 mM NaTC): 96 ± 4 µg/mL
So ± SD ([5]; excipient 0.1M KCl): 1.3 ± 0.8 µg/mL
So^APP ± SD ([5]; excipient 0.1M KCl): 83 ± 17 µg/mL
So ± SD ([5]; excipient 0.2M KCl): 2.5 ± 0.2 µg/mL
So^APP ± SD ([5]; excipient 0.2M KCl): 78 ± 2 µg/mL
So ± SD ([5]; excipient 1% HP-b-CD): 1.5 ± 0.4 µg/mL
So^APP ± SD ([5]; excipient 1% HP-b-CD): 141 ± 7 µg/mL
So ± SD ([5]; excipient 1% NMP): 1.9 ± 0.5 µg/mL
So^APP ± SD ([5]; excipient 1% NMP): 71 ± 5 µg/mL
So ± SD ([5]; excipient 1% PEG400): 2.8 ± 0.4 µg/mL
So^APP ± SD ([5]; excipient 1% PEG400): 107 ± 2 µg/mL
So ± SD ([5]; excipient 1% PG): 0.9 ± 0.2 µg/mL
So^APP ± SD ([5]; excipient 1% PG): 69 ± 5 µg/mL
So ± SD ([5]; excipient 5% PEG400): 2.8 µg/mL
So^APP ± SD ([5]; excipient 5% PEG400): 107 µg/mL
So ± SD ([5]; excipient 5% PG): 1.5 ± 0.5 µg/mL
So^APP ± SD ([5]; excipient 5% PG): 66 ± 9 µg/mL
So ± SD ([5]; excipient […] HP-b-CD): 2.0 ± 0.3 µg/mL
So^APP ± SD ([5]; excipient […] HP-b-CD): 79 ± 4 µg/mL
So ± SD ([5]; excipient […] NMP): 2.1 ± 0.5 µg/mL
So^APP ± SD ([5]; excipient […] NMP): 47 ± 3 µg/mL
So ± SD ([5]; excipient […] PEG400): 3.6 µg/mL
So^APP ± SD ([5]; excipient […] PEG400): 151 µg/mL
So ± SD ([5]; excipient […] PG): 2.3 ± 0.5 µg/mL
So^APP ± SD ([5]; excipient […] PG): 51 ± 4 µg/mL
So ± SD ([5]; excipient none): 1.9 ± 0.7 µg/mL
So^APP ± SD ([5]; excipient none): 40 ± 6 µg/mL
So^APP ± SD ([5]; excipient none, listed as Butacaine): 40 µg/mL
salt limit (sdiff 3-4 approximation) ([5]; three orders of magnitude above excipient-free intrinsic solubility): 39.8 mg/mL
Structure (SMILES): CCCCN(CCCC)CCCOC(=O)c1ccc(N)cc1 [butacaine]
